Active and inactive are the calls of the source. No cut-off for these calls is given here.
How the values were obtained:
[1] = target: Pyruvate kinase PKLR (Homo sapiens) (UniProt P30613); assay: Inhibition of PKR (unknown origin) at 1 uM relative to control
[2] = tested on: HCC1937; assay: Induction of mitochondrial respiration in human HCC1937 cells assessed as increase in oxygen consumption rate at 1 uM in presence of LEAK state by high-resolution fluorespirometry analysis; assay type: functional, cell-based
[3] = target: T1, Pyruvate kinase PKM (Homo sapiens, UniProt P14618); assay: Inhibition of PKM2 (unknown origin) by ITC analysis
Target sequence in this assay (P14618 whole entry): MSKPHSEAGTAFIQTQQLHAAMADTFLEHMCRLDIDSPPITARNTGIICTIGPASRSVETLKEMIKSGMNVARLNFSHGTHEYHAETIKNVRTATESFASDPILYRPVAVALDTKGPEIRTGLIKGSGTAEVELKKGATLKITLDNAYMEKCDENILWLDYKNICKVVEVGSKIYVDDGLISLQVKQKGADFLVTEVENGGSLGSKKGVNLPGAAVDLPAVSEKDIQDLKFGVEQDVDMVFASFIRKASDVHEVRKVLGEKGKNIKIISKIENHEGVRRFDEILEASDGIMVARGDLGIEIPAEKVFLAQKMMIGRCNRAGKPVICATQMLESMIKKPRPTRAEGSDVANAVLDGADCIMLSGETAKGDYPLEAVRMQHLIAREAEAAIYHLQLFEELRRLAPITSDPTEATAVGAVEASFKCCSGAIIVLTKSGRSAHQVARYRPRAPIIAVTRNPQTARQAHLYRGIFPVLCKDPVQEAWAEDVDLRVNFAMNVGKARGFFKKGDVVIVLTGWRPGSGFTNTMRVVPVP

[4] = tested on: H9c2; assay: Induction of ROS production in rat H9c2 cells assessed as decrease in NAD+/NADH ratio at 1 uM incubated for 20 mins by fluorescence cell counter analysis; assay type: functional, cell-based
[5] = tested on: 4T1; assay: Induction of mitochondrial respiration in mouse 4T1 cells assessed as increase in oxygen consumption rate at 1 uM in presence of OXPHOS state by high-resolution fluorespirometry analysis; assay type: functional, cell-based
[6] = target: T1, Pyruvate kinase PKM; assay: Inhibition of N-terminal his8-tagged PKM2 (unknown origin) in presence of FBP by Michaelis-menten analysis
Target sequence in this assay (P14618 whole entry): as above

[7] = tested on: 4T1; assay: Cytotoxicity against mouse 4T1 cells assessed as inhibition of cell growth incubated for 48 hrs by MTT assay; assay type: functional, cell-based; conditions: 4T1, 48 h, read-out: IC50
[8] = tested on: H9c2; assay: Induction of ROS production in rat H9c2 cells assessed as decrease in NAD+ level at 1 uM incubated for 20 mins by fluorescence cell counter analysis; assay type: functional, cell-based
[9] = tested on: MCF7; assay: cells; conditions: Homo sapiens, MCF7, 48 h
Description: Cytotoxicity against human MCF7 cells assessed as inhibition of cell growth incubated for 48 hrs by MTT assay

[10] = tested on: HCC1937; assay: Induction of mitochondrial respiration in human HCC1937 cells assessed as increase in oxygen consumption rate at 1 uM in presence of OXPHOS state by high-resolution fluorespirometry analysis; assay type: functional, cell-based
[11] = tested on: HCC1937; assay: Downregulation of PKM1 mRNA expression in human HCC1937 cells at 0.25 to 5 uM incubated for 24 hrs by qPCR analysis; assay type: functional, cell-based; conditions: dose 0.25-5 µM
[12] = tested on: MCF7; assay: Induction of mitochondrial respiration in human MCF7 cells assessed as increase in oxygen consumption rate at 1 uM in presence of OXPHOS state by high-resolution fluorespirometry analysis; assay type: functional, cell-based
[13] = target: T1, Pyruvate kinase PKM; assay: Inhibition of PKM2 (unknown origin) assessed as increase in tetramer ratio by analytical size-exclusion chromatography; conditions: dose 5.0 µM
Target sequence in this assay (P14618 2-531 limits assumed): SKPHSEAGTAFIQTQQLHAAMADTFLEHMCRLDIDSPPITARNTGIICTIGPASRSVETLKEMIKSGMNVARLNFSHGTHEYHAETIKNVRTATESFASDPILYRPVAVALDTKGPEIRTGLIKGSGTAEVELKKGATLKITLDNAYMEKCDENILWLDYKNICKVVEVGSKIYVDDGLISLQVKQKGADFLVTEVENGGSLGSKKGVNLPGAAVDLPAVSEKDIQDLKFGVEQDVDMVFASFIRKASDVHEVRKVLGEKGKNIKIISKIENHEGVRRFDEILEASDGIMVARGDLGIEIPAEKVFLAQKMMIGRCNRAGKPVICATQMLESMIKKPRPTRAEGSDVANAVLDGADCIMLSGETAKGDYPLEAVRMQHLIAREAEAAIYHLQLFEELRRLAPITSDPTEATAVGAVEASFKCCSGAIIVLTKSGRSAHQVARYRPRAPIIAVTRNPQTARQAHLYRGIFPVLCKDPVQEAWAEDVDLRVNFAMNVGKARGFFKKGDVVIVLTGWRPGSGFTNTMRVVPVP

[14] = Downregulation of PKM2 mRNA expression in human HCC1937 cells assessed as fold change at 0.5 uM incubated for 24 hrs by qPCR analysis; assay type: functional
[15] = tested on: H9c2; assay: Induction of ROS production in rat H9c2 cells assessed as decrease in NADH level at 1 uM incubated for 20 mins by fluorescence cell counter analysis; assay type: functional, cell-based
[16] = tested on: A549; assay: cells; conditions: Homo sapiens, A549, 48 h
Description: Cytotoxicity against human A549 cells assessed as inhibition of cell growth incubated for 48 hrs by MTT assay

[17] = Downregulation of PKM2 mRNA expression in human HCC1937 cells assessed as fold change at 0.25 uM incubated for 24 hrs by qPCR analysis; assay type: functional
[18] = Binding affinity to Sprague-Dawley rat liver Cardiolipin incubated for 10 mins by microplate reader analysis; assay type: tissue-based
[19] = tested on: 4T1; assay: Induction of mitochondrial respiration in mouse 4T1 cells assessed as increase in oxygen consumption rate at 1 uM in presence of LEAK state by high-resolution fluorespirometry analysis; assay type: functional, cell-based
[20] = tested on: 4T1; assay: Induction of ROS production in mouse 4T1 cells assessed as decrease in NAD+ level at 1 uM incubated for 20 mins by fluorescence cell counter analysis; assay type: functional; parameters: scale not given: the % may be the effect or the level left
[21] = tested on: 4T1; assay: Induction of ROS production in mouse 4T1 cells at 1 uM in presence of pyruvate and malate by high-resolution fluorespirometry analysis; assay type: functional, cell-based
[22] = tested on: 4T1; assay: Induction of ROS production in mouse 4T1 cells assessed as decrease in NAD+/NADH ratio at 1 uM incubated for 20 mins by fluorescence cell counter analysis; assay type: functional, cell-based
[23] = Cytotoxicity against rat H9c2 cells assessed as inhibition of cell growth incubated for 48 hrs by MTT assay; assay type: toxicity, cell-based
[24] = tested on: HCC1937; assay: Cytotoxicity against human HCC1937 cells assessed as inhibition of cell growth incubated for 48 hrs by MTT assay; assay type: functional, cell-based; conditions: HCC1937, 48 h
[25] = tested on: HCC1937; assay: Induction of ROS production in human HCC1937 cells at 1 uM in presence of pyruvate and malate by high-resolution fluorespirometry analysis; assay type: functional, cell-based
[26] = target: T1, Pyruvate kinase PKM; assay: Inhibition of N-terminal his8-tagged PKM2 (unknown origin)
Target sequence in this assay (P14618 whole entry): as the sequence (P14618 whole entry) above

[27] = tested on: MCF7; assay: Induction of ROS production in human MCF7 cells at 1 uM in presence of pyruvate and malate by high-resolution fluorespirometry analysis; assay type: functional, cell-based
[28] = tested on: MDA-MB-231; assay: Cytotoxicity against human MDA-MB-231 cells assessed as inhibition of cell growth incubated for 48 hrs by MTT assay; assay type: functional, cell-based; conditions: MDA-MB-231, 48 h
[29] = tested on: MCF7; assay: Induction of mitochondrial respiration in human MCF7 cells assessed as increase in oxygen consumption rate at 1 uM in presence of LEAK state by high-resolution fluorespirometry analysis; assay type: functional, cell-based
[30] = tested on: 4T1; assay: Downregulation of PKM2 mRNA expression in mouse 4T1 cells at 0.25 to 0.5 uM incubated for 24 hrs by qPCR analysis; assay type: functional, cell-based; conditions: dose 0.25-0.5 µM
[31] = tested on: 4T1; assay: Induction of ROS production in mouse 4T1 cells assessed as decrease in NADH level at 1 uM incubated for 20 mins by fluorescence cell counter analysis; assay type: functional; parameters: scale not given: the % may be the effect or the level left
[32] = tested on: Jurkat; assay: Induction of mitochondrial respiration in human Jurkat cells assessed as increase in oxygen consumption rate at 1 uM in presence of OXPHOS state by high-resolution fluorespirometry analysis; assay type: functional, cell-based
[33] = organism: Oryctolagus cuniculus; assay: Inhibition of rabbit LDH at 1 uM relative to control
[34] = tested on: Jurkat; assay: Induction of mitochondrial respiration in human Jurkat cells assessed as increase in oxygen consumption rate at 1 uM in presence of LEAK state by high-resolution fluorespirometry analysis; assay type: functional, cell-based
[35] = tested on: Jurkat; assay: Cytotoxicity against human Jurkat cells assessed as inhibition of cell growth incubated for 48 hrs by MTT assay; assay type: functional, cell-based
[36] = tested on: Jurkat; assay: Induction of ROS production in human Jurkat cells at 1 uM in presence of pyruvate and malate by high-resolution fluorespirometry analysis; assay type: functional, cell-based
[37] = target: T1, Pyruvate kinase PKM; assay: Inhibition of PKM1 (unknown origin); parameters: concentration or dose not given beside the values; conditions: concentration not given here
Target sequence in this assay (P14618 2-531 limits assumed): as the sequence (P14618 2-531 limits assumed) above

Chain of Pyruvate kinase PKLR (Homo sapiens) (P30613 whole entry, looked up): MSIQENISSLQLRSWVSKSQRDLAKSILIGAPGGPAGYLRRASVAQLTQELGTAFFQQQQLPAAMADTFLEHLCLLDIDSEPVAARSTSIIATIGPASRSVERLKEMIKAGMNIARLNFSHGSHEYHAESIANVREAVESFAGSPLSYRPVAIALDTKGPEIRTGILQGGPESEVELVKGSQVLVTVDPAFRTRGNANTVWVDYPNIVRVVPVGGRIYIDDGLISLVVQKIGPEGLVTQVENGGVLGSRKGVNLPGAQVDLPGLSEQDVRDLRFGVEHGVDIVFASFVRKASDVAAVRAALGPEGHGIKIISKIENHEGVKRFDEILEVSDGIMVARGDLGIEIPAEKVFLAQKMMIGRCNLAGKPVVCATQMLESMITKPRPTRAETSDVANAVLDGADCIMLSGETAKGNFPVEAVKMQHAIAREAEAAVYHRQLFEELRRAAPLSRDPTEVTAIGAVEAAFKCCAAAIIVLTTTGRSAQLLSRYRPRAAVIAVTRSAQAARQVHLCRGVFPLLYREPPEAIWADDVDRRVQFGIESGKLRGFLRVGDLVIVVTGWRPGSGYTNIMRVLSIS

COC(=O)c1cc[n+]2[se]c(C3(O)CCCCC3)c(Br)c2c1.[Cl-]
inhibition [1]: 21% | inhibition ([1]; tested as the 2H-labelled form): 16% | Activity [2]: Active | IC50 [3]: 0.25 µM | Activity [4]: inactive | Activity [5]: Active | IC50 [6]: 0.477 µM | IC50 [7]: 0.32 µM | Activity [8]: inactive | IC50 [9]: 1.16 µM | Activity [10]: Active | Activity [11]: inactive | Activity [12]: Active | inhibition [13]: Dose-Dependent Effect | fold change (FC) [14]: 20 | Activity [15]: inactive | IC50 [16]: 1.3 µM | fold change (FC) [17]: 4 | EC50 [18]: 3490 µM | Activity [19]: Active | Activity [20]: 42.8% | Activity [21]: Active | Activity [22]: inactive | IC50 at 48 h [23]: 2.46 µM | IC50 [24]: 0.33 µM | Activity [25]: Active | IC50 [26]: 0.35 µM | Activity [27]: Active | IC50 [28]: 0.51 µM | Activity [29]: Active | Activity [30]: Active | Activity [31]: 57.4% | Activity [32]: Active | inhibition [33]: 10% | inhibition ([33]; tested as the 2H-labelled form): 13% | Activity [34]: Active | IC50 [35]: 0.44 µM | Activity [36]: Active | inhibition [37]: 13% | inhibition ([37]; tested as the 2H-labelled form): 10%
